From US12258327B2, “5-membered heteroaryl-containing aminopyridine compounds as EGFR inhibitors” (YUHAN CORPORATION, priority 2021, dated 2025)
Like-named read-outs stand apart in the source and are kept apart here.

What was measured:
EGFR wildtype (WT) = EGFR wildtype (WT) (Homo sapiens, UniProt P00533); assay: Biochemical EGFR kinase assay (Lance Ultra TR-FRET), wildtype
Procedure, shortened: (§1)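 Enzyme reactions lasted 1 hour at room temperature with test compounds between 0.003 and 10 μM, followed by 10 mM EDTA quench.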

EGFR del19/C797S = EGFR del19/C797S (Homo sapiens, UniProt P00533, C797S/DEL746-750); assay: Biochemical EGFR kinase assay (Lance Ultra TR-FRET), double mutant del19/C797S
Procedure, shortened: as §1

EGFR L858R/T790M/C797S = EGFR L858R/T790M/C797S (Homo sapiens, UniProt P00533, C797S/L858R/T790M); assay: Biochemical EGFR kinase assay (Lance Ultra TR-FRET), triple mutant L858R/T790M/C797S
Procedure, shortened: as §1

EGFR del19/T790M/C797S = EGFR del19/T790M/C797S (Homo sapiens, UniProt P00533, C797S/DEL746-750/T790M); assay: Biochemical EGFR kinase assay (Lance Ultra TR-FRET), triple mutant del19/T790M/C797S
Procedure, shortened: as §1

EGFR L858R/C797S = EGFR L858R/C797S (Homo sapiens, UniProt P00533, C797S/L858R); assay: Biochemical EGFR kinase assay (Lance Ultra TR-FRET), double mutant L858R/C797S
Procedure, shortened: as §1

[1] = IC50 WT (nM) 100 μM ATP, 100 μM ATP
[2] = IC50 del19/C797S (nM) 100 μM ATP, 100 μM ATP
[3] = IC50 L858R/T790M/C797S (nM) 100 μM ATP, 100 μM ATP
[4] = IC50 del19/T790M/C797S (nM) 100 μM ATP, 100 μM ATP
[5] = IC50 L858R/C797S (nM) 100 μM ATP, 100 μM ATP
[6] = Km ATP, read-out: IC50 WT (nM) Km ATP
[7] = Km ATP, read-out: IC50 del19/C797S (nM) Km ATP
[8] = Km ATP, read-out: IC50 L858R/T790M/C797S (nM) Km ATP
[9] = Km ATP, read-out: IC50 del19/T790M/C797S (nM) Km ATP
[10] = Km ATP, read-out: IC50 L858R/C797S (nM) Km ATP

EGFR del19/T790M/C797S, sequence (P00533 with tags, fused parts or gaps DEL746-750/T790M/C797S): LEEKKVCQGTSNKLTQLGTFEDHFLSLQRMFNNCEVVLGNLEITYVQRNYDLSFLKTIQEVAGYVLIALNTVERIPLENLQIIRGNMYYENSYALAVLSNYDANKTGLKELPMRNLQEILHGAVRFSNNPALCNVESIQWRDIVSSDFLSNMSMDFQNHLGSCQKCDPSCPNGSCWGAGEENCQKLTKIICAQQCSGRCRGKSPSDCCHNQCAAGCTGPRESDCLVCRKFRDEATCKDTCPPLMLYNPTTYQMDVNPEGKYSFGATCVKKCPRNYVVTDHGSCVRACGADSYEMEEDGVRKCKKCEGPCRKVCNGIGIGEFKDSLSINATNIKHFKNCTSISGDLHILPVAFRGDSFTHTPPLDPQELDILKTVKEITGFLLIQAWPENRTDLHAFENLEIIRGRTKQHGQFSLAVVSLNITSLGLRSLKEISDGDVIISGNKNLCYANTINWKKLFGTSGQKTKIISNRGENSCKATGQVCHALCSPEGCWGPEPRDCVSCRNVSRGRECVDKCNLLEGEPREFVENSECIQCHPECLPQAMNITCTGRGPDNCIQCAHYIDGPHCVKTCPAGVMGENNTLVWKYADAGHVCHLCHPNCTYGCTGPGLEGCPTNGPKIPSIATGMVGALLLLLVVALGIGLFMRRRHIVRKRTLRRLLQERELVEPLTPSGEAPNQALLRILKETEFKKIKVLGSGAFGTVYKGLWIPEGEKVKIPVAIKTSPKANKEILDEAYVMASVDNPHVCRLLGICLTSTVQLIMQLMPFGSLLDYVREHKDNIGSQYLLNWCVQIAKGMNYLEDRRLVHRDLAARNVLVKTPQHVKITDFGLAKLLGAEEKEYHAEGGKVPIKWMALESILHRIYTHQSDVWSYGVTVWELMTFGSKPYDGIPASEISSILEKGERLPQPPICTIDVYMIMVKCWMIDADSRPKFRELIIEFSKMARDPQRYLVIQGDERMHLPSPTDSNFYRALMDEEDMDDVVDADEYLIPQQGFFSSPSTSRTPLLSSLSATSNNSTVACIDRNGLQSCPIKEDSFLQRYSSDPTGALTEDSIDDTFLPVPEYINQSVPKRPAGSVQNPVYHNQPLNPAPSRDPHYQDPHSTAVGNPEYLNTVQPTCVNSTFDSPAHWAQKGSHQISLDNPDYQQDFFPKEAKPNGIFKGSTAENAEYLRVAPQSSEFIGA
EGFR wildtype (WT), sequence (P00533 25-1210): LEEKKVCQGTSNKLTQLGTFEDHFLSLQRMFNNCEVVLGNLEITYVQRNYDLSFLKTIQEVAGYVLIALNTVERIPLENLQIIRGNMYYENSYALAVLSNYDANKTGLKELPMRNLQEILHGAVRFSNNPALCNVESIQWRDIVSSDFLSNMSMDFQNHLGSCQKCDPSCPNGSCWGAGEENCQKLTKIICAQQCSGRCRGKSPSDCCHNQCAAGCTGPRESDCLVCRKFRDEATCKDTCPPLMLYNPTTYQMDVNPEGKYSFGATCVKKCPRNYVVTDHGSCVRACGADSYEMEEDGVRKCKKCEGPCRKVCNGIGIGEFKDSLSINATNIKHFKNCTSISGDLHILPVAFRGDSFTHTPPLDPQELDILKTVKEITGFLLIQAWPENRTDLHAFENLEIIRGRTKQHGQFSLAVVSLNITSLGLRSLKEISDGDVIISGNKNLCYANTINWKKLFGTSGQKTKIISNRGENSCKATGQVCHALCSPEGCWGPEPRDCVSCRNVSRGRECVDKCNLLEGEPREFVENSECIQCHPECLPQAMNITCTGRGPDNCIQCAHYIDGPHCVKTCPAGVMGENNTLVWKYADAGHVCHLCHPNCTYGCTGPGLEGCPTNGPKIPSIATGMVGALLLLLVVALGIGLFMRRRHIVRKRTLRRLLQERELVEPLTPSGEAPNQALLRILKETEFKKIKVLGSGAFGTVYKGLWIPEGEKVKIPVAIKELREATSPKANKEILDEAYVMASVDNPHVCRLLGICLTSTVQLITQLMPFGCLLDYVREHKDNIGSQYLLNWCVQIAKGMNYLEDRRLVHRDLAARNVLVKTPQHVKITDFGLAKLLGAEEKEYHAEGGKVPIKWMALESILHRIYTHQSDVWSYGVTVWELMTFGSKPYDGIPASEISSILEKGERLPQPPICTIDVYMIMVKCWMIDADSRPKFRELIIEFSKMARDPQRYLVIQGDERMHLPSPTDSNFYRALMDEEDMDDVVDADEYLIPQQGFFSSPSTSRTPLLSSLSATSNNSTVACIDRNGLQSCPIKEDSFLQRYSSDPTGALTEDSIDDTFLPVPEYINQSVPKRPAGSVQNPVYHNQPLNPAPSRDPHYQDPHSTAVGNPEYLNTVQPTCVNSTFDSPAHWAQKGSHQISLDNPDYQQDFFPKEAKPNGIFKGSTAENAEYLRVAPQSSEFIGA
EGFR L858R/C797S, sequence (P00533 25-1210 C797S/L858R): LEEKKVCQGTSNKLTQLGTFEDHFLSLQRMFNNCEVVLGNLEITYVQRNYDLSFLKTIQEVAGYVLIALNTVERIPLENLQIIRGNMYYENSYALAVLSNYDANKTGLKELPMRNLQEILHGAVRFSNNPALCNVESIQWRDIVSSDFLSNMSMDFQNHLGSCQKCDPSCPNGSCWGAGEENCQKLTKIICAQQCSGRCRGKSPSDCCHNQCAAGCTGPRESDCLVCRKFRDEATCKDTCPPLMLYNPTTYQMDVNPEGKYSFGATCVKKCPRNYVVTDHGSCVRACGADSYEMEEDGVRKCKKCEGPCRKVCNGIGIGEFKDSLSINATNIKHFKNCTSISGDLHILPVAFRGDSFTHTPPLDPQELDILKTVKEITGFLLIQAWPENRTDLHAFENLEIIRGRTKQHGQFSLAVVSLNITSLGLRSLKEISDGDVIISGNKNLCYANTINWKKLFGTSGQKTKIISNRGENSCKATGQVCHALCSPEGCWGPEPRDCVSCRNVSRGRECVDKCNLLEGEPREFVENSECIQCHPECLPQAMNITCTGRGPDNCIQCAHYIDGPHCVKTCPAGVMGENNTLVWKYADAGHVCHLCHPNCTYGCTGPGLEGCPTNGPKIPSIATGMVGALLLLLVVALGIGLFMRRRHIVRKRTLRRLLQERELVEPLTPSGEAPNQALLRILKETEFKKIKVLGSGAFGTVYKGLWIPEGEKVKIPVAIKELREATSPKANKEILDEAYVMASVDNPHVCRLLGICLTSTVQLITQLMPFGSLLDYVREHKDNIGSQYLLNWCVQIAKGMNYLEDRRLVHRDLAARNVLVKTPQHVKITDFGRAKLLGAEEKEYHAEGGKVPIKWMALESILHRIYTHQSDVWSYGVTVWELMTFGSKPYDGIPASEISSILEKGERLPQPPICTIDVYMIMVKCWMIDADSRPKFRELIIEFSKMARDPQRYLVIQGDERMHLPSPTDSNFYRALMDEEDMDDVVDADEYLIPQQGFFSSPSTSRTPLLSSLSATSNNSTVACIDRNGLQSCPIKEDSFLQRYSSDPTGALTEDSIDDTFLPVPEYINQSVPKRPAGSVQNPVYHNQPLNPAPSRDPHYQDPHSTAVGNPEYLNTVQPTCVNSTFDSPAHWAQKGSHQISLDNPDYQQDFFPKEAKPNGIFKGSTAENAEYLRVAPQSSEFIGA
EGFR del19/C797S, sequence (P00533 with tags, fused parts or gaps DEL746-750/C797S): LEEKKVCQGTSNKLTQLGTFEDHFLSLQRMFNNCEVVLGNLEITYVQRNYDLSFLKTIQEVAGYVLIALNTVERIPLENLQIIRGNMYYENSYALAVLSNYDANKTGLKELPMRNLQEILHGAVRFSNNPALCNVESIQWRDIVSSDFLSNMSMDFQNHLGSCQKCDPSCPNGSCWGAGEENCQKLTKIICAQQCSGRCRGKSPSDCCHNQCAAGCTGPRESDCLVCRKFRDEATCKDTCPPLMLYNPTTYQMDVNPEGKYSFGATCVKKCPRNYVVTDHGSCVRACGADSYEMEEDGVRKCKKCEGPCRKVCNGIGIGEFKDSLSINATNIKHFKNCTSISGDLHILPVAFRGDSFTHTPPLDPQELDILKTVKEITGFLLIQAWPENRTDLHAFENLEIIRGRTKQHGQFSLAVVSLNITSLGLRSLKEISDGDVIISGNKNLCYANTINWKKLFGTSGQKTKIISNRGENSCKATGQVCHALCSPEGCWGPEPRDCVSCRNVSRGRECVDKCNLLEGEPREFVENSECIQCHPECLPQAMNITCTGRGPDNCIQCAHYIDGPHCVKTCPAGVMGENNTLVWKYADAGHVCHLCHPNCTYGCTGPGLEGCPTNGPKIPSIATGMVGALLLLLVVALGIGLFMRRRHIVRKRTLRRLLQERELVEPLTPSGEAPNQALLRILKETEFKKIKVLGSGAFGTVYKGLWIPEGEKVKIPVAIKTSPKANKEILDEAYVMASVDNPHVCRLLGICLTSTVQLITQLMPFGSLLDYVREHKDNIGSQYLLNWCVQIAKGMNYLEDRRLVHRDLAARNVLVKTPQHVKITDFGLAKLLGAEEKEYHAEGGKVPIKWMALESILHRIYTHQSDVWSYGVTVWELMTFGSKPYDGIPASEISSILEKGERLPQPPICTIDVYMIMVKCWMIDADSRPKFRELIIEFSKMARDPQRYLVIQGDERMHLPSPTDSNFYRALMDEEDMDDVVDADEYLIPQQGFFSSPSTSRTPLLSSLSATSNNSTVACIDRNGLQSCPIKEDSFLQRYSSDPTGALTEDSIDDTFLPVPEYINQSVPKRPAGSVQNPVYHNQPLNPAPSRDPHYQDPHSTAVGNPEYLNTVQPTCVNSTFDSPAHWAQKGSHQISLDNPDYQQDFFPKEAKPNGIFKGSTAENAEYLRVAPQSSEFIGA

CN(C)CCCn1ccc(-c2cnc(Nc3ccnc(-c4cnn(S(=O)(=O)C5CC5)c4)n3)cc2N[C@H]2CC[C@@](C)(O)CC2)n1 [Example 288, (1s,4s)-4-((2-((2-(1-(Cyclopropylsulfonyl)-1H-pyrazol-4-yl)pyrimidin-4-yl)amino)-5-(1-(3-(dimethylamino)propyl)-1H-pyrazol-3-yl)pyridin-4-yl)amino)-1-methylcyclohexan-1-ol]
IC50 (EGFR wildtype (WT); [1]): 133 nM
IC50 (EGFR del19/C797S; [2]): 0.2 nM
IC50 (EGFR L858R/T790M/C797S; [3]): 0.2 nM
IC50 (EGFR del19/T790M/C797S; [4]): 0.2 nM
IC50 (EGFR L858R/C797S; [5]): 0.4 nM

CN(C)C[C@H]1C[C@@H](CNc2cc(Nc3ccnc(-c4cnn(S(=O)(=O)C5CC5)c4)n3)ncc2-c2ccn(C)n2)C1 [Example 234, N^2-(2-(1-(Cyclopropylsulfonyl)-1H-pyrazol-4-yl)pyrimidin-4-yl)-N^4-(((1s,3s)-3-((dimethylamino)methyl)cyclobutyl)methyl)-5-(1-methyl-1H-pyrazol-3-yl)pyridine-2,4-diamine]
IC50 (EGFR wildtype (WT); [1]): 1790 nM
IC50 (EGFR del19/C797S; [2]): 1.7 nM
IC50 (EGFR L858R/T790M/C797S; [3]): 0.2 nM
IC50 (EGFR del19/T790M/C797S; [4]): 0.1 nM
IC50 (EGFR L858R/C797S; [5]): 8.7 nM

O=S(=O)(C1CC1)n1cc(-c2nccc(Nc3cc(N[C@H]4CC[C@@H](F)CC4)c(-c4ccn(C(F)(F)F)n4)cn3)n2)cn1 [Example 286, N^2-(2-(1-(Cyclopropylsulfonyl)-1H-pyrazol-4-yl)pyrimidin-4-yl)-N^4-((1s,4s)-4-fluorocyclohexyl)-5-(1-(trifluoromethyl)-1H-pyrazol-3-yl)pyridine-2,4-diamine]
IC50 (EGFR wildtype (WT); [6]): 1010 nM
IC50 (EGFR del19/C797S; [7]): 90.9 nM
IC50 (EGFR L858R/T790M/C797S; [8]): 4.8 nM
IC50 (EGFR del19/T790M/C797S; [9]): 20.2 nM
IC50 (EGFR L858R/C797S; [10]): 188 nM

C[C@]1(O)CC[C@@H](Nc2cc(Nc3ccnc(-c4cnn(CC(F)(F)C(F)F)c4)n3)ncc2-c2ccn(C(F)F)n2)CC1 [Example 322, (1s,4s)-4-((5-(1-(Difluoromethyl)-1H-pyrazol-3-yl)-2-((2-(1-(2,2,3,3-tetrafluoropropyl)-1H-pyrazol-4-yl)pyrimidin-4-yl)amino)pyridin-4-yl)amino)-1-methylcyclohexan-1-ol]
IC50 (EGFR wildtype (WT); [6]): 1520 nM
IC50 (EGFR del19/C797S; [7]): 176 nM
IC50 (EGFR L858R/T790M/C797S; [8]): 0.6 nM
IC50 (EGFR del19/T790M/C797S; [9]): 1.9 nM
IC50 (EGFR L858R/C797S; [10]): 15.5 nM

C[C@]1(O)CC[C@@H](Nc2cc(Nc3ccnc(-c4cnn(S(=O)(=O)N5CC(F)C5)c4)n3)ncc2-c2ccn(C(F)F)n2)CC1 [Example 324, (1s,4s)-4-((5-(1-(Difluoromethyl)-1H-pyrazol-3-yl)-2-((2-(1-((3-fluoroazetidin-1-yl)sulfonyl)-1H-pyrazol-4-yl)pyrimidin-4-yl)amino)pyridin-4-yl)amino)-1-methylcyclohexan-1-ol]
IC50 (EGFR wildtype (WT); [6]): 55.5 nM
IC50 (EGFR del19/C797S; [7]): 66.9 nM
IC50 (EGFR L858R/T790M/C797S; [8]): 1.7 nM
IC50 (EGFR del19/T790M/C797S; [9]): 4.6 nM
IC50 (EGFR L858R/C797S; [10]): 13.2 nM

CC(C)(O)[C@H]1CC[C@@H](Nc2cc(Nc3ccnc(-c4cnn(S(=O)(=O)C5CC5)c4)n3)ncc2-c2ccn(CC(F)(F)F)n2)CC1 [Example 265, 2-((1s,4s)-4-((2-((2-(1-(Cyclopropylsulfonyl)-1H-pyrazol-4-yl)pyrimidin-4-yl)amino)-5-(1-(2,2,2-trifluoroethyl)-1H-pyrazol-3-yl)pyridin-4-yl)amino)cyclohexyl)propan-2-ol]
IC50 (EGFR wildtype (WT); [1]): > 10000 nM
IC50 (EGFR wildtype (WT); [6]): 86.8 nM
IC50 (EGFR del19/C797S; [2]): 12.2 nM
IC50 (EGFR del19/C797S; [7]): 11.8 nM
IC50 (EGFR L858R/T790M/C797S; [3]): 7.4 nM
IC50 (EGFR del19/T790M/C797S; [4]): 5.4 nM
IC50 (EGFR L858R/C797S; [5]): 187 nM
IC50 (EGFR L858R/C797S; [10]): 6.6 nM

CN(C)C[C@H]1CC[C@@H](Nc2cc(Nc3ccnc(-c4cnn(S(=O)(=O)C5CC5)c4)n3)ncc2-c2cc(C(C)(C)O)n(C)n2)CC1 [Example 302, 2-(3-(6-((2-(1-(Cyclopropylsulfonyl)-1H-pyrazol-4-yl)pyrimidin-4-yl)amino)-4-(((1s,4s)-4-((dimethylamino)methyl)cyclohexyl)amino)pyridin-3-yl)-1-methyl-1H-pyrazol-5-yl)propan-2-ol]
IC50 (EGFR wildtype (WT); [1]): 38.9 nM
IC50 (EGFR wildtype (WT); [6]): 0.2 nM
IC50 (EGFR del19/C797S; [2]): 0.3 nM
IC50 (EGFR del19/C797S; [7]): 0.2 nM
IC50 (EGFR L858R/T790M/C797S; [3]): 0.2 nM
IC50 (EGFR L858R/T790M/C797S; [8]): 0.1 nM
IC50 (EGFR del19/T790M/C797S; [4]): 0.4 nM
IC50 (EGFR del19/T790M/C797S; [9]): 0.3 nM
IC50 (EGFR L858R/C797S; [5]): 0.2 nM
IC50 (EGFR L858R/C797S; [10]): 0.1 nM

O=S(=O)(C1CC1)n1cc(-c2nccc(Nc3cc(NC4CCC(F)(F)C4)c(-c4ccn(C(F)F)n4)cn3)n2)cn1 (centres unmarked) [Example 179, N^2-(2-(1-(Cyclopropylsulfonyl)-1H-pyrazol-4-yl)pyrimidin-4-yl)-N^4-(3,3-difluorocyclopentyl)-5-(1-(difluoromethyl)-1H-pyrazol-3-yl)pyridine-2,4-diamine]
IC50 (EGFR wildtype (WT); [6]): 264 nM
IC50 (EGFR del19/C797S; [7]): 168 nM
IC50 (EGFR L858R/T790M/C797S; [8]): 2.1 nM
IC50 (EGFR del19/T790M/C797S; [9]): 3.1 nM
IC50 (EGFR L858R/C797S; [10]): 7.4 nM

O=S(=O)(C1CC1)n1cc(-c2nccc(Nc3cc(NC4CCN(CCF)CC4)c(-c4ccn(C(F)F)n4)cn3)n2)cn1 [Example 217, N^2-(2-(1-(Cyclopropylsulfonyl)-1H-pyrazol-4-yl)pyrimidin-4-yl)-5-(1-(difluoromethyl)-1H-pyrazol-3-yl)-N^4-(1-(2-fluoroethyl)piperidin-4-yl)pyridine-2,4-diamine]
IC50 (EGFR wildtype (WT); [6]): 454 nM
IC50 (EGFR del19/C797S; [7]): 28.7 nM
IC50 (EGFR L858R/T790M/C797S; [8]): 0.4 nM
IC50 (EGFR del19/T790M/C797S; [9]): 0.2 nM
IC50 (EGFR L858R/C797S; [10]): 23.7 nM

O=S(=O)(C1CC1)n1cc(-c2nccc(Nc3cc(N[C@H]4CC[C@@H](O)CC4)c(-c4ccn(C(F)F)n4)cn3)n2)cn1 [Example 80, (1s,4s)-4-((2-((2-(1-(Cyclopropylsulfonyl)-1H-pyrazol-4-yl)pyrimidin-4-yl)amino)-5-(1-(difluoromethyl)-1H-pyrazol-3-yl)pyridin-4-yl)amino)cyclohexan-1-ol]
IC50 (EGFR wildtype (WT); [1]): 214 nM
IC50 (EGFR del19/C797S; [2]): 1.2 nM
IC50 (EGFR L858R/T790M/C797S; [3]): 0.8 nM
IC50 (EGFR del19/T790M/C797S; [4]): 0.7 nM
IC50 (EGFR L858R/C797S; [5]): 1.4 nM

C[C@]1(O)CC[C@@H](Nc2cc(Nc3ccnc(-c4cnn(C(F)F)c4)n3)ncc2-c2ccn(C(F)F)n2)CC1 [Example 149, (1s,4s)-4-((5-(1-(Difluoromethyl)-1H-pyrazol-3-yl)-2-((2-(1-(difluoromethyl)-1H-pyrazol-4-yl)pyrimidin-4-yl)amino)pyridin-4-yl)amino)-1-methylcyclohexan-1-ol]
IC50 (EGFR wildtype (WT); [6]): 1730 nM
IC50 (EGFR del19/C797S; [7]): 144 nM
IC50 (EGFR L858R/T790M/C797S; [8]): 2.7 nM
IC50 (EGFR del19/T790M/C797S; [9]): 2.7 nM
IC50 (EGFR L858R/C797S; [10]): 47.2 nM

Cn1nc(-c2cnc(Nc3ccnc(-c4cnn(S(=O)(=O)C5CC5)c4)c3)nc2N[C@H]2CC[C@@](C)(O)CC2)cc1C(F)(F)F [Example 356, (1s,4s)-4-((2-((2-(1-(Cyclopropylsulfonyl)-1H-pyrazol-4-yl)pyridin-4-yl)amino)-5-(1-methyl-5-(trifluoromethyl)-1H-pyrazol-3-yl)pyrimidin-4-yl)amino)-1-methylcyclohexan-1-ol]
IC50 (EGFR wildtype (WT); Km ATP, read-out: IC50 WT, Km ATP): 96.6 nM
IC50 (EGFR del19/C797S; Km ATP, read-out: IC50 del19/C797S, Km ATP): 9.8 nM
IC50 (EGFR L858R/T790M/C797S; Km ATP, read-out: IC50 L858R/T790M/C797S, Km ATP): 1.8 nM
IC50 (EGFR del19/T790M/C797S; Km ATP, read-out: IC50 del19/T790M/C797S, Km ATP): 1.1 nM
IC50 (EGFR L858R/C797S; Km ATP, read-out: IC50 L858R/C797S, Km ATP): 12.1 nM

C[C@]1(O)CC[C@@H](Nc2cc(Nc3ccnc(-c4cnc5c(c4)NCCO5)n3)ncc2-c2ccn(C(F)F)n2)CC1 [Example 154, (1s,4s)-4-((5-(1-(Difluoromethyl)-1H-pyrazol-3-yl)-2-((2-(2,3-dihydro-1H-pyrido[2,3-b][1,4]oxazin-7-yl)pyrimidin-4-yl)amino)pyridin-4-yl)amino)-1-methylcyclohexan-1-ol]
IC50 (EGFR wildtype (WT); [6]): 377 nM
IC50 (EGFR del19/C797S; [7]): 128 nM
IC50 (EGFR L858R/T790M/C797S; [8]): 0.2 nM
IC50 (EGFR del19/T790M/C797S; [9]): 0.3 nM
IC50 (EGFR L858R/C797S; [10]): 16.2 nM

CN(C)CC1(C)CCC(Nc2cc(Nc3ccnc(-c4cnn(S(=O)(=O)C5CC5)c4)n3)ncc2-c2ccn(CC(F)(F)F)n2)CC1 (centres unmarked) [Example 267, N^2-(2-(1-(Cyclopropylsulfonyl)-1H-pyrazol-4-yl)pyrimidin-4-yl)-N^4-(4-((dimethylamino)methyl)-4-methylcyclohexyl)-5-(1-(2,2,2-trifluoroethyl)-1H-pyrazol-3-yl)pyridine-2,4-diamine]
IC50 (EGFR wildtype (WT); [1]): 8270 nM
IC50 (EGFR wildtype (WT); [6]): 28.7 nM
IC50 (EGFR del19/C797S; [2]): 8.8 nM
IC50 (EGFR del19/C797S; [7]): 6.7 nM
IC50 (EGFR L858R/T790M/C797S; [3]): 0.1 nM
IC50 (EGFR L858R/T790M/C797S; [8]): 0.5 nM
IC50 (EGFR del19/T790M/C797S; [4]): 0.1 nM
IC50 (EGFR del19/T790M/C797S; [9]): 0.2 nM
IC50 (EGFR L858R/C797S; [5]): 576 nM
IC50 (EGFR L858R/C797S; [10]): 25.4 nM
